# Assay results published in patent US20040210047A1, “Methallyl sucroses and their epoxy derivatives” (priority 2003, published 2004).
# “Also recorded” adds a separate entry of the source.
# Tests used:
# [1] = tested on: Salmonella Typhimurium TA-98; assay: Modified Maron-Ames test, strain TA-98; conditions: for cytotoxicity: strain TA-98, with microsomal enzyme S-9 activation, no effect on the background lawn; for mutagenicity (revertant colonies): strain TA-98, with or without metabolic activation S-9
# Description: (§1) Serial dilutions (100 fold) were made with DMSO to obtain samples with dilution factors of 10^−3, 10^−5, and 10^−7. The assays were performed according to the modified methods of Maron and Ames (Maron D. R. and Ames, B. N. Mutation Research, 1980, Vol. 113, 173-215) using two strains of Salmonella Typhimurium TA-98 and TA-100, with and without metabolic activation of the substrate. The male rat microsomal homogenate S-9 was used to effect metabolic activation of the substrate. TA-98 and TA-100 were cultured in Oxoid Nutrient Broth No.2 at 37° C. for 16 hours using a gyratory shaker (200-250 rpm).
# (§2) Compounds were assayed after the bacteria tested positive for the viability-related criteria above. Two mL top agar was placed in sterile culture tubes and kept at ˜40° C. in a water bath. Samples (100 μL) were placed in each tube (3 tubes per sample) and 100 μL of either strain TA-98 or TA-100 was added. When required, the S-9 homogenate (500 μL) was then added. The tubes were mixed and poured into minimal glucose agar plates. The plates were left at room temperature until the top agar solidified. Then, they were inverted and incubated at 37° C. for 48 hours. After incubation, revertant colonies were counted. Samples that presented greater than 2 times the number of revertant colonies were considered mutagenic. (See FIGS. 9(a) through (f)).
# [2] = tested on: Salmonella Typhimurium TA-100; assay: Modified Maron-Ames test, strain TA-100; conditions: for dilution at which a mutagenic response was observed: dilution in DMSO
# Description: as §1, with “Serial dilutions (100 fold) were made with DMSO to obtain samples with dilution factors of 10^−3, 10^−5, and 10^−7.” left out
# as §2
Molecule,cytotoxicity [1],mutagenicity (revertant colonies) [1],"cytotoxicity and mutagenicity, overall conclusion ([1]; tester strain TA-98, all concentrations)","dilution at which a mutagenic response was observed ([2]; strain TA-100, with S-9 activation)","dilution at which a mutagenic response was observed ([2]; strain TA-100, without S-9 activation)","cytotoxicity ([2]; Maron-Ames tests, about 10 mg/mL concentration in DMSO, strain not stated)",cytotoxicity ([2]; dilution factors of 10^−1),"mutagenic response ([2]; strain TA-100, dilution factor 10^−1 in DMSO, with or without S-9 activation)","revertant colonies ([2]; strain TA-100, dilution factor 10^−2)"
"CC(C)(c1ccc(OCC2CO2)cc1)c1ccc(OCC2CO2)cc1 (stereo not shown) [DGEBA, diglycidyl ether of bisphenol-A]",slightly cytotoxic,no apparent mutagenicity,neither cytotoxic nor mutagenic,greater than 10^−3,greater than 10^−5,–,–,–,–
epoxyallyl sucrose [EAS],slightly cytotoxic,–,–,–,–,–,–,–,–
epoxycrotyl sucrose [ECS],slightly cytotoxic,–,–,–,–,–,–,–,–
epoxymethallyl sucrose [EMS],slightly cytotoxic,no apparent mutagenicity; also recorded: no mutagenic response,–,–,–,borderline cytotoxicity,borderline cytotoxic,mutagenic response was observed,had not doubled
